Reference: patent publication US12692261B2, “Substituted heterocyclic compounds and therapeutic uses thereof” (Bayer Aktiengesellschaft, priority 2020, dated 2026)

Tests used:
full-length human CSNK1D = biological target: T1, full-length human CSNK1D (Homo sapiens, UniProt P48730); assay: CSNK1D Assay (ADP-Glo, 1 μM ATP); assay type: biochemical; details: Table 3, read-out: CSNK1D IC50 [mol/l] (median)
T1 construct: N-terminal Glutathion-S-Transferase (GST) and full-length human CSNK1D; purchased Life Technologies PV3665; host or cells: baculovirus infected insect cells
T1 sequence (P48730 whole entry): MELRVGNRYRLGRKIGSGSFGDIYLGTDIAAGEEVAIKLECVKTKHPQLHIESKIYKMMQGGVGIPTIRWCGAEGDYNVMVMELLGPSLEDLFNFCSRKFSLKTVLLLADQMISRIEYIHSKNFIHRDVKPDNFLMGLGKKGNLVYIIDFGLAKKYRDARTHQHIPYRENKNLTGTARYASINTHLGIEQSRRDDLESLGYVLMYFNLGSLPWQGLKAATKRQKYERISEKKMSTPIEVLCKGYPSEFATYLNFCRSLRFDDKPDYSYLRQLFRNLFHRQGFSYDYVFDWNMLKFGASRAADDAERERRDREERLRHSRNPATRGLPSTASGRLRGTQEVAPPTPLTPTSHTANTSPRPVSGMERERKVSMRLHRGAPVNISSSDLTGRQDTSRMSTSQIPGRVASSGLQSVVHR
Procedure, shortened: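 ADP-Glo luminescence reports ADP generated by GST-fused full-length human CSNK1D (insect-cell expressed, about 0.5 ng/μL) acting on a biotinylated peptide at 1 μM ATP. Test compounds were pre-bound to enzyme 15 min at 22° C in 50 mM HEPES pH 7.5.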

[1] = biological target: T2, full-length human CSNK1A1 (Homo sapiens, UniProt P48729); assay: CSNK1A1 Assay 2 (ADP-Glo, 1 μM ATP, substrate biotin-Ahx-KRRRAL-pS-VASLPGL); assay type: biochemical; details: Table 3, read-out: CSNK1A1 Assay 2 IC50 [mol/l] (median)
T2 construct: N-terminal Glutathion-S-Transferase (GST) and full-length human CSNK1A1; purchased Life Technologies PV4174; host or cells: baculovirus infected insect cells
T2 sequence (P48729 whole entry): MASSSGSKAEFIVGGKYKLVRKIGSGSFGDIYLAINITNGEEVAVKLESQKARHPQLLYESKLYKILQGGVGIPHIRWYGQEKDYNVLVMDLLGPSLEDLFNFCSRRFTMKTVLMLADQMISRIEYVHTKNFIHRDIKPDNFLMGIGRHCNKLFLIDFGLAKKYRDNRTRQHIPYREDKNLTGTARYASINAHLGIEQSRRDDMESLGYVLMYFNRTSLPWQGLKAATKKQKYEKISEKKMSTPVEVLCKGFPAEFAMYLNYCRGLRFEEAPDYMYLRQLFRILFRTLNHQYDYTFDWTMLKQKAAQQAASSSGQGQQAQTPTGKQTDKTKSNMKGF
Procedure, shortened: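 Activity read as ADP generated (ADP-Glo luciferase luminescence, 1 h detection steps at 22 °C). Enzyme was insect-cell-expressed GST–full-length human CSNK1A1, compound-preincubated 15 min before reaction with phosphopeptide substrate and 1 μM ATP in 50 mM HEPES pH 7.5, 10 mM MgCl2.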

| Compound | IC50 (full-length human CSNK1D) [nM] | IC50 [1] [nM] |
| --- | --- | --- |
| O=C(Nc1cc(-c2[nH]c3ccc(F)nc3c2-c2cc(F)ccn2)ccn1)C(CC(F)F)c1ccc(F)cc1 (single isomer, unassigned) [Example 97, (2R or S)-4,4-difluoro-N-{4-[5-fluoro-3-(4-fluoropyridin-2-yl)-1H-pyrrolo[3,2-b]pyridin-2-yl]pyridin-2-yl}-2-(4-fluorophenyl)butanamide] | 67 | 36 |
| CC(C)(O)c1cc(F)nc2c(-c3ccccn3)c(-c3ccnc(NC(=O)C(CC(F)F)c4ccc(F)cc4)c3)[nH]c12 (single isomer, unassigned) [Example 99, (2R or S)-4,4-difluoro-N-{4-[5-fluoro-7-(2-hydroxypropan-2-yl)-3-(pyridin-2-yl)-1H-pyrrolo[3,2-b]pyridin-2-yl]pyridin-2-yl}-2-(4-fluorophenyl)butanamide] | 3.36 | 3.55 |
| CC(C)(O)c1cc(F)nc2c(-c3ccccn3)c(-c3ccnc(NC(=O)C(CC(F)F)c4ccc(F)cc4)c3)[nH]c12 (single isomer, unassigned) [Example 100, (2R or S)-4,4-difluoro-N-{4-[5-fluoro-7-(2-hydroxypropan-2-yl)-3-(pyridin-2-yl)-1H-pyrrolo[3,2-b]pyridin-2-yl]pyridin-2-yl}-2-(4-fluorophenyl)butanamide] | 46.3 | 33.6 |
| COc1cnc2c(-c3ccccn3)c(-c3ccnc(NC(=O)C(CC(F)F)c4ccc(F)cc4)c3)[nH]c2n1 (single isomer, unassigned) [Example 102, 4,4-difluoro-2-(4-fluorophenyl)-N-{4-[3-methoxy-7-(pyridin-2-yl)-5H-pyrrolo[2,3-b]pyrazin-6-yl]pyridin-2-yl}butanamide] | 75 | 31.1 |
| COc1cnc2c(-c3ccccn3)c(-c3ccnc(NC(=O)C(CC(F)F)c4ccc(F)cc4)c3)[nH]c2n1 (single isomer, unassigned) [Example 103, 4,4-difluoro-2-(4-fluorophenyl)-N-{4-[3-methoxy-7-(pyridin-2-yl)-5H-pyrrolo[2,3-b]pyrazin-6-yl]pyridin-2-yl}butanamide] | 4.3 | 1.97 |
| O=C(Nc1cc(-c2[nH]c3c(C4CCCO4)cc(F)nc3c2-c2ccccn2)ccn1)C(CC(F)F)c1ccc(F)cc1 (single isomer, unassigned) [Example 115, (2R or S)-4,4-difluoro-N-(4-{5-fluoro-7-[(2R or S)-oxolan-2-yl]-3-(pyridin-2-yl)-1H-pyrrolo[3,2-b]pyridin-2-yl}pyridin-2-yl)-2-(4-fluorophenyl)butanamide] | 7.02 | 5.84 |
| O=C(Nc1cc(-c2[nH]c3c(C4CCCO4)cc(F)nc3c2-c2ccccn2)ccn1)C(CC(F)F)c1ccc(F)cc1 (single isomer, unassigned) [Example 116, (2R or S)-4,4-difluoro-N-(4-{5-fluoro-7-[(2R or S)-oxolan-2-yl]-3-(pyridin-2-yl)-1H-pyrrolo[3,2-b]pyridin-2-yl}pyridin-2-yl)-2-(4-fluorophenyl)butanamide] | 4.25 | 5.1 |
| O=C(Nc1cc(-c2[nH]c3c(C4CCCO4)cc(F)nc3c2-c2ccccn2)ccn1)C(CC(F)F)c1ccc(F)cc1 (single isomer, unassigned) [Example 117, (2R or S)-4,4-difluoro-N-(4-{5-fluoro-7-[(2R or S)-oxolan-2-yl]-3-(pyridin-2-yl)-1H-pyrrolo[3,2-b]pyridin-2-yl}pyridin-2-yl)-2-(4-fluorophenyl)butanamide] | 28 | 9.89 |
| O=C(Nc1cc(-c2[nH]c3c(C4CCCO4)cc(F)nc3c2-c2ccccn2)ccn1)C(CC(F)F)c1ccc(F)cc1 (single isomer, unassigned) [Example 118, (2R or S)-4,4-difluoro-N-(4-{5-fluoro-7-[(2R or S)-oxolan-2-yl]-3-(pyridin-2-yl)-1H-pyrrolo[3,2-b]pyridin-2-yl}pyridin-2-yl)-2-(4-fluorophenyl)butanamide] | 125 | 66.9 |
| O=C(Nc1cc(-c2[nH]c3nccnc3c2-c2ccccn2)ccn1)C(CC(F)(F)F)c1ccc(F)cc1 (single isomer, unassigned) [Example 120, (2R or S)-4,4,4-trifluoro-2-(4-fluorophenyl)-N-{4-[7-(pyridin-2-yl)-5H-pyrrolo[2,3-b]pyrazin-6-yl]pyridin-2-yl}butanamide] | 4.35 | 1.36 |
| O=C(Nc1cc(-c2[nH]c3nccnc3c2-c2ccccn2)ccn1)C(CC(F)(F)F)c1ccc(F)cc1 (single isomer, unassigned) [Example 121, (2R or S)-4,4,4-trifluoro-2-(4-fluorophenyl)-N-{4-[7-(pyridin-2-yl)-5H-pyrrolo[2,3-b]pyrazin-6-yl]pyridin-2-yl}butanamide] | 62.9 | 29.4 |
| O=C(Nc1cc(-c2[nH]c3c(OCC(F)(F)F)ncnc3c2-c2ccccn2)ccn1)C(CC(F)F)c1ccc(F)cc1 (single isomer, unassigned) [Example 123, (2R or S)-4,4-difluoro-2-(4-fluorophenyl)-N-{4-[7-(pyridin-2-yl)-4-(2,2,2-trifluoroethoxy)-5H-pyrrolo[3,2-d]pyrimidin-6-yl]pyridin-2-yl}butanamide] | 4.49 | 4.5 |
| O=C(Nc1cc(-c2[nH]c3c(OCC(F)(F)F)ncnc3c2-c2ccccn2)ccn1)C(CC(F)F)c1ccc(F)cc1 (single isomer, unassigned) [Example 124, (2R or S)-4,4-difluoro-2-(4-fluorophenyl)-N-{4-[7-(pyridin-2-yl)-4-(2,2,2-trifluoroethoxy)-5H-pyrrolo[3,2-d]pyrimidin-6-yl]pyridin-2-yl}butanamide] | 46.6 | 30 |
| O=C(Nc1cc(-c2[nH]c3c(OCC(F)(F)F)ncnc3c2-c2ccccn2)ccn1)C(CC(F)(F)F)c1ccc(F)cc1 (single isomer, unassigned) [Example 126, (2R or S)-4,4,4-trifluoro-2-(4-fluorophenyl)-N-{4-[7-(pyridin-2-yl)-4-(2,2,2-trifluoroethoxy)-5H-pyrrolo[3,2-d]pyrimidin-6-yl]pyridin-2-yl}butanamide] | 7.84 | 5.94 |
| O=C(Nc1cc(-c2[nH]c3c(OCC(F)(F)F)ncnc3c2-c2ccccn2)ccn1)C(CC(F)(F)F)c1ccc(F)cc1 (single isomer, unassigned) [Example 127, (2R or S)-4,4,4-trifluoro-2-(4-fluorophenyl)-N-{4-[7-(pyridin-2-yl)-4-(2,2,2-trifluoroethoxy)-5H-pyrrolo[3,2-d]pyrimidin-6-yl]pyridin-2-yl}butanamide] | 88.1 | 85 |
| O=C(Nc1cc(-c2[nH]c3c(OCC4CC4)ncnc3c2-c2ccccn2)ccn1)C(CC(F)F)c1ccc(F)cc1 (single isomer, unassigned) [Example 129, (2R or S)—N-{4-[4-(cyclopropylmethoxy)-7-(pyridin-2-yl)-5H-pyrrolo[3,2-d]pyrimidin-6-yl]pyridin-2-yl}-4,4-difluoro-2-(4-fluorophenyl)butanamide] | 5.94 | 4.52 |
| O=C(Nc1cc(-c2[nH]c3c(OCC4CC4)ncnc3c2-c2ccccn2)ccn1)C(CC(F)F)c1ccc(F)cc1 (single isomer, unassigned) [Example 130, (2R or S)—N-{4-[4-(cyclopropylmethoxy)-7-(pyridin-2-yl)-5H-pyrrolo[3,2-d]pyrimidin-6-yl]pyridin-2-yl}-4,4-difluoro-2-(4-fluorophenyl)butanamide] | 55.8 | 43.7 |
| O=C(Nc1cc(-c2[nH]c3cccnc3c2-c2ccccn2)ccn1)C(CC(F)F)c1ccc(F)cc1 (single isomer, unassigned; (+)) [Example 11, (+)-4,4-difluoro-2-(4-fluorophenyl)-N-{4-[3-(pyridin-2-yl)-1H-pyrrolo[3,2-b]pyridin-2-yl]pyridin-2-yl}butanamide] | 2.57 | 1.2 |
| O=C(Nc1cc(-c2[nH]c3cncnc3c2-c2ccccn2)ccn1)C(CC(F)F)c1ccc(F)cc1 (single isomer, unassigned; (+)) [Example 15, (+)-4,4-difluoro-2-(4-fluorophenyl)-N-{4-[7-(pyridin-2-yl)-5H-pyrrolo[3,2-d]pyrimidin-6-yl]pyridin-2-yl}butanamide] | 3.06 | 1.32 |
| O=C(Nc1cc(-c2[nH]c3cc(F)cnc3c2-c2ccccn2)ccn1)C(CC(F)F)c1ccc(F)cc1 (single isomer, unassigned; (+)) [Example 17, (+)-4,4-difluoro-2-(4-fluorophenyl)-N-{4-[6-fluoro-3-(pyridin-2-yl)-1H-pyrrolo[3,2-b]pyridin-2-yl]pyridin-2-yl}butanamide] | 3.16 | 1.7 |
| O=C(Nc1cc(-c2[nH]c3cc(F)cnc3c2-c2ccccc2)ccn1)C(CC(F)F)c1ccc(F)cc1 (single isomer, unassigned; (+)) [Example 21, (+)-4,4-difluoro-2-(4-fluorophenyl)-N-[4-(6-fluoro-3-phenyl-1H-pyrrolo[3,2-b]pyridin-2-yl)pyridin-2-yl]butanamide] | 3.59 | 4.21 |
| O=C(Nc1cc(-c2[nH]c3cccnc3c2-c2ccccc2)ccn1)C(CC(F)F)c1ccc(F)cc1 (single isomer, unassigned; (+)) [Example 24, (+)-4,4-difluoro-2-(4-fluorophenyl)-N-[4-(3-phenyl-1H-pyrrolo[3,2-b]pyridin-2-yl)pyridin-2-yl]butanamide] | 2.48 | 1.62 |
